“And” between values parts separate entries of the source, which are not always exact repeats. Equal values may be shown once.
Columns and labels:
D(1A) dopamine receptor = D(1A) dopamine receptor (Homo sapiens, UniProt P21728)
D(2) dopamine receptor [1] = molecular target: T1, D(2) dopamine receptor (Homo sapiens, UniProt P14416); assay type: cell membranes, HEK293T, Membrane
D(2) dopamine receptor [2] = molecular target: T1, D(2) dopamine receptor
D(2) dopamine receptor [3] = molecular target: T1, D(2) dopamine receptor; remark: listed apart in the source
[4] = molecular target: T2, 5-hydroxytryptamine receptor 2C (Homo sapiens, UniProt P28335)
T2 sequence (P28335 whole entry): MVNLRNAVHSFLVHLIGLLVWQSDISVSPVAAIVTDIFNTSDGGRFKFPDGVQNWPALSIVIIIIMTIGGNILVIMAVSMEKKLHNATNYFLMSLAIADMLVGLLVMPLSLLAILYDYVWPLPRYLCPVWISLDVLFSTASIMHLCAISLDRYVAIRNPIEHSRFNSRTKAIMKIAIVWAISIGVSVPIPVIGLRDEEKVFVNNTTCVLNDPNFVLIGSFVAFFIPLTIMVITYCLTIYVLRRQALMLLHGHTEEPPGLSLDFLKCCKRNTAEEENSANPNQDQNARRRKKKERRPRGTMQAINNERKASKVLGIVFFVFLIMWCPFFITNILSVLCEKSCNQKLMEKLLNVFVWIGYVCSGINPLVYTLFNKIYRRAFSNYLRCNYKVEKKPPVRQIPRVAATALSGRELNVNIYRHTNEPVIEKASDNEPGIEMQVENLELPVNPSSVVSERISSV

[5] = molecular target: 5-hydroxytryptamine receptor 2A (Homo sapiens, UniProt P28223); assay type: cell membranes, HEK293T, Membrane
Chain of 5-hydroxytryptamine receptor 2A (P28223 whole entry): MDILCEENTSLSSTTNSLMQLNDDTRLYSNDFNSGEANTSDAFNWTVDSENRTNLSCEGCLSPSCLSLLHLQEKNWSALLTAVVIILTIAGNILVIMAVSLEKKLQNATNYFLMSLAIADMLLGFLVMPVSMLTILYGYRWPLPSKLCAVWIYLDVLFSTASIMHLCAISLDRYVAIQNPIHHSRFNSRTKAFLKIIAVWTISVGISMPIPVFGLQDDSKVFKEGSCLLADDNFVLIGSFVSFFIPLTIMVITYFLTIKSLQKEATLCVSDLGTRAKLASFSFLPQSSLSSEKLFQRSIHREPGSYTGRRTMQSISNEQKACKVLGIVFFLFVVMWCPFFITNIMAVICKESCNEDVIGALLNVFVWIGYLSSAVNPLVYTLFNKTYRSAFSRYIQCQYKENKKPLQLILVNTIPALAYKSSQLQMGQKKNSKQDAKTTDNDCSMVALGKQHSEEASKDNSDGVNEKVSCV

D(4) dopamine receptor = molecular target: T3, D(4) dopamine receptor (Homo sapiens, UniProt P21917)
T3 sequence (P21917 whole entry): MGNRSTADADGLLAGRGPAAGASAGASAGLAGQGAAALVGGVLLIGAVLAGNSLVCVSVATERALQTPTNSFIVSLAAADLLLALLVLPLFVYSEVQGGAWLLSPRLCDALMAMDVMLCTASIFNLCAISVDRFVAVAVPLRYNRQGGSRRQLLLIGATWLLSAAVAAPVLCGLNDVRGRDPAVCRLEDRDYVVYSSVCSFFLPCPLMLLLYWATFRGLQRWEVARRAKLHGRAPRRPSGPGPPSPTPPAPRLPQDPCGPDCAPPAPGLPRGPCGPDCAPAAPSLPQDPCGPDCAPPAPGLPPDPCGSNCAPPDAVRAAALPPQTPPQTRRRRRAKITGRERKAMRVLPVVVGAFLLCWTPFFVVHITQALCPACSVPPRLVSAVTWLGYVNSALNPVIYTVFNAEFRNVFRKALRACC

in vitro [6] = details: human, liver microsomes
Description: Metabolic stability in human liver microsomes assessed as half life preincubated for 5 mins followed by NADPH addition measured after 10 mins by LC-MS analysis

in vitro [7] = details: mouse, liver microsomes
Description: Metabolic stability in mouse liver microsomes assessed as half life preincubated for 5 mins followed by NADPH addition measured after 10 mins by LC-MS analysis

Chain of D(1A) dopamine receptor (P21728 whole entry): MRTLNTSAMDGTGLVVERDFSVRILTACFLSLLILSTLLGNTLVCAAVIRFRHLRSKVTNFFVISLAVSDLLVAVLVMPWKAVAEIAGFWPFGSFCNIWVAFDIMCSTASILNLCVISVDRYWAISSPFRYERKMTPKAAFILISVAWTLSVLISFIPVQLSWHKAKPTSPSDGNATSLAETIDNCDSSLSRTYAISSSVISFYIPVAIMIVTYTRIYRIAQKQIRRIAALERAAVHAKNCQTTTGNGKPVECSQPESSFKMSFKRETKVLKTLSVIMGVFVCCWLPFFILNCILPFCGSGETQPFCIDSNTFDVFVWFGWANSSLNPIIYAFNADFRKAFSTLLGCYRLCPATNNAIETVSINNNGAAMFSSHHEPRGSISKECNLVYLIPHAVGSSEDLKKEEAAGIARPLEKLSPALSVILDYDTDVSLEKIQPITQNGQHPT
T1 sequence (P14416 whole entry): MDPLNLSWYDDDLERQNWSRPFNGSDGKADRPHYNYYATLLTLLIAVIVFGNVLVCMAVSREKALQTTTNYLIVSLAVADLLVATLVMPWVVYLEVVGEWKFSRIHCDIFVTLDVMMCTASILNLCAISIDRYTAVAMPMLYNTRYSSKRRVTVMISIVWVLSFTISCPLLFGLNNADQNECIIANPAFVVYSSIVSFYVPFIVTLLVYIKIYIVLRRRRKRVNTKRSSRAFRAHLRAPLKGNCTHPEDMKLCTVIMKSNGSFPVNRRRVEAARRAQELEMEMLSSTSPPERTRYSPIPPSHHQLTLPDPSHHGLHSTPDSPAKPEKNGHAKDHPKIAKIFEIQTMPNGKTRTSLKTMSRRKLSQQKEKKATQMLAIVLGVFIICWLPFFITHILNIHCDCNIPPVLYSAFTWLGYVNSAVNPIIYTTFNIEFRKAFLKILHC

Row | Ki (D(2) dopamine receptor [1]) [nM] | EC50 (D(2) dopamine receptor [2]) [nM] | EC50 (D(2) dopamine receptor [3]) | further results | Structure (SMILES)
1 | – | – | – | Ki (D(1A) dopamine receptor): 2.93 nM | CN1CCc2ccccc2Cc2[nH]c3ccccc3c2CC1
2 | 1820 | – | – | – | COc1ccccc1C1CC1CNCC[C@H]1CC[C@H](NC(=O)N(C)C)CC1 (stereo not given in full)
3 | 156 | 11.2 | 7.08 nM | – | COc1ccccc1C1CC1CNCCCOc1ccc2ccc(=O)[nH]c2c1 (stereo not given)
4 | 1330 | – | – | – | CN(C)C(=O)N[C@H]1CC[C@H](CCNCC2CC2c2cccc(Cl)c2Cl)CC1 (stereo not given in full)
5 | 384 | 95.5 | 61.7 nM | – | O=C1CCc2ccc(OCCCCNCC3CC3c3cccc4c3OCCO4)cc2N1 (stereo not given)
6 | 454 | 22.9 | 61.3 nM and 60.3 nM | – | COc1ccccc1C1CC1CNC/C=C/COc1ccc2c(c1)NC(=O)CC2 (stereo not given)
7 | 259 | 891 | 417 nM | – | COc1ccccc1C1CC1CNCCCCCOc1ccc2c(c1)NC(=O)CC2 (stereo not given)
8 | 178 | 26.3 | 23.4 nM | – | O=c1ccc2ccc(OCCCCNCC3CC3c3cccc4c3OCCO4)cc2[nH]1 (stereo not given)
9 | 366 | 18.9 | 35.7 nM | – | CSc1ccccc1C1CC1CNCCCCOc1ccc2c(c1)NC(=O)CC2 (stereo not given)
10 | – | – | – | Ki [4]: 373 nM; Ki [5]: 2090 nM; Ki (D(1A) dopamine receptor): > 10000 nM; Ki (D(4) dopamine receptor): 373 nM | COc1ccc(Cl)cc1[C@H]1C[C@@H]1CNCCCCOc1ccc2c(c1)NC(=O)CC2
11 | – | – | – | Ki [4]: 122 nM; Ki [5]: 1410 nM; Ki (D(1A) dopamine receptor): > 10000 nM; Ki (D(4) dopamine receptor): 122 nM | COc1ccc(F)cc1[C@H]1C[C@@H]1CNCCCCOc1ccc2ccc(=O)[nH]c2c1
12 | – | – | – | Ki [4]: 305 nM; Ki [5]: 520 nM; Ki (D(1A) dopamine receptor): > 10000 nM; Ki (D(4) dopamine receptor): 305 nM | COc1ccc(F)cc1[C@H]1C[C@@H]1CNCCCOc1ccc2ccc(=O)[nH]c2c1
13 | 126 | 9.3 | 10 nM | – | COc1ccccc1C1CC1CNCCCOc1ccc2c(c1)NC(=O)CC2 (stereo not given)
14 | 27.4 | 3.47 | 14.9 nM | – | COc1ccc(F)cc1C1CC1CNCCCOc1ccc2c(c1)NC(=O)CC2 (stereo not given)
15 | 322 | – | – | – | CN(CCCCOc1ccc2c(c1)NC(=O)CC2)CC1CC1c1cccc(Cl)c1Cl (stereo not given)
16 | 2310 | – | – | – | CN(C)C(=O)N[C@H]1CC[C@H](CCNCC2CC2c2cccc3c2OCCO3)CC1 (stereo not given in full)
17 | 59.9 | 26.3 | 32.4 nM | – | COc1ccccc1C1CC1CNCCCCOc1ccc2ccc(=O)[nH]c2c1 (stereo not given)
18 | 2190 | – | – | – | COc1ccccc1C1CC1CNCC[C@H]1CC[C@H](NC(=O)N2CCCC2)CC1 (stereo not given in full)
19 | – | – | – | Ki [4]: 604 nM; Ki [5]: 1160 nM; Ki (D(1A) dopamine receptor): > 10000 nM; Ki (D(4) dopamine receptor): 604 nM | COc1ccc(Cl)cc1[C@H]1C[C@@H]1CNCCCOc1ccc2ccc(=O)[nH]c2c1
20 | 1040 | – | – | – | COc1ccccc1C1CC1CNCC[C@H]1CC[C@H](NC(=O)c2ccccc2)CC1 (stereo not given in full)
21 | 95.2 | 2.88 | 7.43 nM | – | CSc1ccccc1C1CC1CNCCCCOc1ccc2ccc(=O)[nH]c2c1 (stereo not given)
22 | 0.51 | 10.2 | 16.1 nM | half-life at 10 min (in vitro [6]): 27.2 min; half-life at 10 min (in vitro [7]): 17.2 min | O=c1ccc2ccc(OCCCCN3CCN(c4cccc5sccc45)CC3)cc2[nH]1 [BREXPIPRAZOLE]
23 | – | – | – | half-life at 10 min (in vitro [6]): 32.7 min; half-life at 10 min (in vitro [7]): 22.3 min | CN(C)C(=O)N[C@H]1CC[C@H](CCN2CCN(c3cccc(Cl)c3Cl)CC2)CC1 [CARIPRAZINE]

— ChEMBL document CHEMBL4840367, “2-Phenylcyclopropylmethylamine Derivatives as Dopamine D2 Receptor Partial Agonists: Design, Synthesis, and Biological Evaluation” (J Med Chem, 2021)
